Results published in US11154566B2, “Composition for preventing hair loss or promoting hair growth” (CK BIOTECH, priority 2017, dated 2021).
In brackets after ≈: the same amount, converted by molar mass.

Experiment: Solubility of indirubin derivative in oils and surfactants (LC/MS/MS)
Type: physicochemical
Conditions: thermodynamic from solid, 72 hours at 37° C.
Protocol: To determine emulsion solution, solubility of indirubin derivative, embodiment 2 is measured in the several oil and surfactants. After enough amount of indirubin derivative powder made from manufacturing example 2 is putted into each oil or surfactants (1 ml), it was into vortexing 30 min. The equilibrium state was reached by shaking for 72 hours at 37° C. with 50 rpm speed in an incubator, then centrifuged at 16,100×g for 5 min. The supernatant was diluted with methanol and analyzed by LC/MS/MS. The kind of above oil or surfactants and measured solubility are shown below table 1.
‘Waters xevo TQ MS-ACQUITY UPLC System’ is used as an analyses equipment. ACQUITY UPLC® BEH (C18, 1.7 μm, 2.1×50 mm) column was used for analyses at room temperature. Mobile phase is used after filtration of deionized distilled water including 0.1% formic acid and acetonitrile including 0.1% formic acid (30:70, v/v) with […] membrane filter. The flow rate is 0.25 ml/min and it is analyzed by injection of 0.5 μl sample. There are LC/MS/MS conditions for Decursin analysis; Cone 38 V, Collison 32 V. Precursor ion and daughter ion are monitored 329 and 229 m/z, respectively.

solubility at 72 h (aqueous with cosolvent or surfactant or cyclodextrin, in Kolliphor EL): 5400 µg/mL (≈ 15 mM)
solubility at 72 h (aqueous with cosolvent or surfactant or cyclodextrin, in Tween 20): 4580 µg/mL (≈ 12.7 mM)
solubility at 72 h (aqueous with cosolvent or surfactant or cyclodextrin, in Tween 80): 4920 µg/mL (≈ 13.7 mM)
solubility at 72 h (oil or lipid, in Olive oil): 830 µg/mL (≈ 2.3 mM)
solubility at 72 h (oil or lipid, in Sunflower oil): 1350 µg/mL (≈ 3.75 mM)
solubility at 72 h (organic solvent or mixture, in PEG 400): 3100 µg/mL (≈ 8.61 mM)
solubility at 72 h (organic solvent or mixture, in Propylene glycol): 250 µg/mL (≈ 0.694 mM)
solubility at 72 h (organic solvent or mixture, in Transcutor P): 1150 µg/mL (≈ 3.19 mM)
SMILES: CO/N=C1/C(=C2/C(=O)Nc3cc(Cl)c(Cl)cc32)Nc2ccccc21 [Embodiment A3051, 5,6-dichloroindirubin-3′-methoxime]
